According to patent publication US20210045385A1, “PYRIDAZINONE-SUBSTITUTED KETOXIMES AS HERBICIDES” (FMC Corporation, priority 2018, published 2021):

Columns and labels:
Assay type in all cases: in vivo
[1] = test system: Italian ryegrass (Lolium multiflorum); assay: Test A preemergence, visual plant response rating; details: for Ryegrass, Italian plant response rating: 125 g ai/ha, preemergence, 0 to 100 scale, 0 no effect, 100 complete control; for Ryegrass, Italian plant response rating (0 to 100 scale): 500 g ai/ha Preemergence, approx. 10 days
Method in brief: (§1)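 Compared with untreated controls, treated plants received a visual injury score on a 0–100 scale around 10 days after application. The compound, in a non-phytotoxic solvent with surfactant, was given as a preemergence soil spray or postemergence at the one- to two-leaf stage.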

[2] = test system: barnyardgrass (Echinochloa crus-galli); assay: Test A preemergence, visual plant response rating; details: for Barnyardgrass plant response rating: 125 g ai/ha, preemergence, 0 to 100 scale, 0 no effect, 100 complete control; for Barnyardgrass plant response rating (0 to 100 scale): 500 g ai/ha Preemergence, approx. 10 days
Method in brief: as §1

[3] = test system: foxtail, giant (giant foxtail, Setaria faberii); assay: Test A preemergence, visual plant response rating; details: for Foxtail, Giant plant response rating: 125 g ai/ha, preemergence, 0 to 100 scale, 0 no effect, 100 complete control; for Foxtail, Giant plant response rating (0 to 100 scale): 500 g ai/ha Preemergence, approx. 10 days
Method in brief: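 Ratings use a 0–100 visual scale (100 = complete control) against untreated controls, scored about 10 days after greenhouse treatment. Test chemicals were formulated in surfactant-containing non-phytotoxic solvent and applied either as soil spray after planting (preemergence) or onto one- to two-leaf, 2–10 cm plants (postemergence).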

[4] = test system: kochia (Kochia scoparia); assay: Test A preemergence, visual plant response rating; details: for Kochia plant response rating: 125 g ai/ha, preemergence, 0 to 100 scale, 0 no effect, 100 complete control; for Kochia plant response rating (0 to 100 scale): 500 g ai/ha Preemergence, approx. 10 days
Method in brief: as §1

[5] = test system: pigweed (Amaranthus retroflexus); assay: Test A preemergence, visual plant response rating; details: for Pigweed plant response rating: 125 g ai/ha, preemergence, 0 to 100 scale, 0 no effect, 100 complete control; for Pigweed plant response rating (0 to 100 scale): 500 g ai/ha Preemergence, approx. 10 days
Method in brief: as §1

[6] = test system: ragweed (common ragweed, Ambrosia elatior); assay: Test A preemergence, visual plant response rating; details: for Ragweed plant response rating: 125 g ai/ha, preemergence, 0 to 100 scale, 0 no effect, 100 complete control; for Ragweed plant response rating (0 to 100 scale): 500 g ai/ha Preemergence, approx. 10 days
Method in brief: as §1

[7] = test system: Italian ryegrass (Lolium multiflorum); assay: Test A postemergence, visual plant response rating; details: for Ryegrass, Italian plant response rating (0 to 100 scale): 500 g ai/ha, postemergence, 0 is no effect, 100 is complete control; for Ryegrass, Italian plant response rating: Postemergence, 125 g ai/ha, 0 to 100 scale (0 no effect, 100 complete control)
Method in brief: as §1

[8] = test system: barnyardgrass (Echinochloa crus-galli); assay: Test A postemergence, visual plant response rating; details: for Barnyardgrass plant response rating (0 to 100 scale): 500 g ai/ha, postemergence, 0 is no effect, 100 is complete control; for Barnyardgrass plant response rating: Postemergence, 125 g ai/ha, 0 to 100 scale (0 no effect, 100 complete control)
Method in brief: as §1

[9] = test system: blackgrass (Alopecurus myosuroides); assay: Test A postemergence, visual plant response rating; details: for Blackgrass plant response rating (0 to 100 scale): 500 g ai/ha, postemergence, 0 is no effect, 100 is complete control; for Blackgrass plant response rating: Postemergence, 125 g ai/ha, 0 to 100 scale (0 no effect, 100 complete control)
Method in brief: as §1

[10] = test system: corn (Zea mays); assay: Test A postemergence, visual plant response rating; details: for Corn plant response rating (0 to 100 scale): 500 g ai/ha, postemergence, 0 is no effect, 100 is complete control; for Corn plant response rating: Postemergence, 125 g ai/ha, 0 to 100 scale (0 no effect, 100 complete control)
Method in brief: as §1

[11] = test system: foxtail, giant (giant foxtail, Setaria faberii); assay: Test A postemergence, visual plant response rating; details: for Foxtail, Giant plant response rating (0 to 100 scale): 500 g ai/ha, postemergence, 0 is no effect, 100 is complete control; for Foxtail, Giant plant response rating: Postemergence, 125 g ai/ha, 0 to 100 scale (0 no effect, 100 complete control)
Method in brief: as §1

[12] = test system: galium (catchweed bedstraw, Galium aparine); assay: Test A postemergence, visual plant response rating; details: for Galium plant response rating (0 to 100 scale): 500 g ai/ha, postemergence, 0 is no effect, 100 is complete control; for Galium plant response rating: Postemergence, 125 g ai/ha, 0 to 100 scale (0 no effect, 100 complete control)
Method in brief: as §1

[13] = test system: kochia (Kochia scoparia); assay: Test A postemergence, visual plant response rating; details: for Kochia plant response rating (0 to 100 scale): 500 g ai/ha, postemergence, 0 is no effect, 100 is complete control; for Kochia plant response rating: Postemergence, 125 g ai/ha, 0 to 100 scale (0 no effect, 100 complete control)
Method in brief: as §1

[14] = test system: pigweed (Amaranthus retroflexus); assay: Test A postemergence, visual plant response rating; details: for Pigweed plant response rating (0 to 100 scale): 500 g ai/ha, postemergence, 0 is no effect, 100 is complete control; for Pigweed plant response rating: Postemergence, 125 g ai/ha, 0 to 100 scale (0 no effect, 100 complete control)
Method in brief: as §1

[15] = test system: ragweed (common ragweed, Ambrosia elatior); assay: Test A postemergence, visual plant response rating; details: for Ragweed plant response rating (0 to 100 scale): 500 g ai/ha, postemergence, 0 is no effect, 100 is complete control; for Ragweed plant response rating: Postemergence, 125 g ai/ha, 0 to 100 scale (0 no effect, 100 complete control)
Method in brief: as §1

[16] = test system: wheat (Triticum aestivum); assay: Test A postemergence, visual plant response rating; details: for Wheat plant response rating (0 to 100 scale): 500 g ai/ha, postemergence, 0 is no effect, 100 is complete control; for Wheat plant response rating: Postemergence, 125 g ai/ha, 0 to 100 scale (0 no effect, 100 complete control)
Method in brief: as §1

[17] = test system: barnyardgrass (Echinochloa crus-galli); assay: Test B flooded paddy test, visual plant response rating; details: 250 g ai/ha, Flood, applied to paddy water, 2-leaf stage, evaluated after 13 to 15 days
Method in brief: (§2)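 Test pots are flooded 3 cm above the soil at treatment, and the test substance is introduced into this standing water. After keeping the flood level and growing plants, treated at the 2-leaf stage, for 13 to 15 days under glass, injury is assessed visually versus controls.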

[18] = test system: ducksalad (Heteranhera limosa); assay: as above; details: 250 g ai/ha, Flood, applied to paddy water, 2-leaf stage, evaluated after 13 to 15 days
Method in brief: as §2

[19] = test system: rice (Oryza sativa); assay: as above; details: 250 g ai/ha, Flood, applied to paddy water, 2-leaf stage, evaluated after 13 to 15 days
Method in brief: as §2

[20] = test system: sedge, umbrella (small-flower umbrella sedge, Cyperus difformis); assay: as above; details: 250 g ai/ha, Flood, applied to paddy water, 2-leaf stage, evaluated after 13 to 15 days
Method in brief: as §2

SMILES	Ryegrass, Italian plant response rating [1]	Ryegrass, Italian plant response rating (0 to 100 scale) [1]	Barnyardgrass plant response rating [2]	Barnyardgrass plant response rating (0 to 100 scale) [2]	Foxtail, Giant plant response rating [3]	Foxtail, Giant plant response rating (0 to 100 scale) [3]	Kochia plant response rating [4]	Kochia plant response rating (0 to 100 scale) [4]	Pigweed plant response rating [5]	Pigweed plant response rating (0 to 100 scale) [5]	Ragweed plant response rating [6]	Ragweed plant response rating (0 to 100 scale) [6]	Ryegrass, Italian plant response rating (0 to 100 scale) [7]	Ryegrass, Italian plant response rating [7]	Barnyardgrass plant response rating (0 to 100 scale) [8]	Barnyardgrass plant response rating [8]	Blackgrass plant response rating (0 to 100 scale) [9]	Blackgrass plant response rating [9]	Corn plant response rating (0 to 100 scale) [10]	Corn plant response rating [10]	other results
C#CCO/N=C(\c1c(O)c(C)nn(C)c1=O)c1cccc2ccccc12 [Compound 83, 5-hydroxy-2,6-dimethyl-4-[(Z)-[(2-propyn-1-yloxy)imino]-1-naphthalenylmethyl]-3(2H)-pyridazinone]	80	100	80	100	90	100	20	100	100	100	100	100	100	90	80	60	100	90	40	20	Foxtail, Giant plant response rating (0 to 100 scale) [11]: 80; Foxtail, Giant plant response rating [11]: 70; Galium plant response rating (0 to 100 scale) [12]: 100; Galium plant response rating [12]: 90; Kochia plant response rating (0 to 100 scale) [13]: 90; Kochia plant response rating [13]: 80; Pigweed plant response rating (0 to 100 scale) [14]: 90; Pigweed plant response rating [14]: 80; Ragweed plant response rating (0 to 100 scale) [15]: 100; Ragweed plant response rating [15]: 90; Wheat plant response rating (0 to 100 scale) [16]: 60; Wheat plant response rating [16]: 40; Plant response rating, Barnyardgrass (0 to 100 scale, 0 is no effect, 100 is complete control) [17]: 0; Plant response rating, Ducksalad (0 to 100 scale, 0 is no effect, 100 is complete control) [18]: 75; Plant response rating, Rice (0 to 100 scale, 0 is no effect, 100 is complete control) [19]: 0; Plant response rating, Sedge, Umbrella (0 to 100 scale, 0 is no effect, 100 is complete control) [20]: 70
CCO/N=C(/c1c(O)c(C)nn(C)c1=O)c1ccc(F)c2ccccc12 [Compound 84]	100	100	60	100	100	100	20	60	100	100	80	100	100	90	80	60	100	90	30	20	Foxtail, Giant plant response rating (0 to 100 scale) [11]: 80; Foxtail, Giant plant response rating [11]: 70; Galium plant response rating (0 to 100 scale) [12]: 100; Galium plant response rating [12]: 90; Kochia plant response rating (0 to 100 scale) [13]: 80; Kochia plant response rating [13]: 70; Pigweed plant response rating (0 to 100 scale) [14]: 90; Pigweed plant response rating [14]: 80; Ragweed plant response rating (0 to 100 scale) [15]: 100; Ragweed plant response rating [15]: 90; Wheat plant response rating (0 to 100 scale) [16]: 50; Wheat plant response rating [16]: 40; Plant response rating, Barnyardgrass (0 to 100 scale, 0 is no effect, 100 is complete control) [17]: 0; Plant response rating, Ducksalad (0 to 100 scale, 0 is no effect, 100 is complete control) [18]: 0; Plant response rating, Rice (0 to 100 scale, 0 is no effect, 100 is complete control) [19]: 0; Plant response rating, Sedge, Umbrella (0 to 100 scale, 0 is no effect, 100 is complete control) [20]: 0
CCO/N=C(\c1c(O)c(C)nn(C)c1=O)c1ccc(F)c2ccccc12 [Compound 85]	100	100	70	90	80	100	10	50	100	100	90	100	100	90	80	50	100	90	30	10	Foxtail, Giant plant response rating (0 to 100 scale) [11]: 80; Foxtail, Giant plant response rating [11]: 70; Galium plant response rating (0 to 100 scale) [12]: 90; Galium plant response rating [12]: 80; Kochia plant response rating (0 to 100 scale) [13]: 90; Kochia plant response rating [13]: 70; Pigweed plant response rating (0 to 100 scale) [14]: 90; Pigweed plant response rating [14]: 80; Ragweed plant response rating (0 to 100 scale) [15]: 100; Ragweed plant response rating [15]: 90; Wheat plant response rating (0 to 100 scale) [16]: 50; Wheat plant response rating [16]: 40; Plant response rating, Barnyardgrass (0 to 100 scale, 0 is no effect, 100 is complete control) [17]: 0; Plant response rating, Ducksalad (0 to 100 scale, 0 is no effect, 100 is complete control) [18]: 0; Plant response rating, Rice (0 to 100 scale, 0 is no effect, 100 is complete control) [19]: 0; Plant response rating, Sedge, Umbrella (0 to 100 scale, 0 is no effect, 100 is complete control) [20]: 0
C=CCO/N=C(\c1c(O)c(C)nn(C)c1=O)c1ccc(F)c2ccccc12 [Compound 86]	100	100	90	90	100	100	20	30	90	100	80	100	100	90	80	50	90	90	20	0	Foxtail, Giant plant response rating (0 to 100 scale) [11]: 80; Foxtail, Giant plant response rating [11]: 70; Galium plant response rating (0 to 100 scale) [12]: 100; Galium plant response rating [12]: 70; Kochia plant response rating (0 to 100 scale) [13]: 50; Kochia plant response rating [13]: 40; Pigweed plant response rating (0 to 100 scale) [14]: 80; Pigweed plant response rating [14]: 70; Ragweed plant response rating (0 to 100 scale) [15]: 100; Ragweed plant response rating [15]: 100; Wheat plant response rating (0 to 100 scale) [16]: 80; Wheat plant response rating [16]: 50; Plant response rating, Barnyardgrass (0 to 100 scale, 0 is no effect, 100 is complete control) [17]: 0; Plant response rating, Ducksalad (0 to 100 scale, 0 is no effect, 100 is complete control) [18]: 0; Plant response rating, Rice (0 to 100 scale, 0 is no effect, 100 is complete control) [19]: 0; Plant response rating, Sedge, Umbrella (0 to 100 scale, 0 is no effect, 100 is complete control) [20]: 0
